This is an account of results in patent US20130150363A1, “Method of Treating Cancer Using a cMET and AXL Inhibitor and an ErbB Inhibitor” (GlaxoSmithKline, priority 2008, published 2013).

Assay [1] relates to BT474-J4 cells. Nature of the assay: Cell apoptosis assays (Cell Death ELISA, Caspase-Glo 3/7), BT474-J4. The format is cell-based, human. The following applies: BT474-J4, presence of HGF (FIG. 4, FIG. 5B). How it is done:
(§1) Cell apoptosis was measured by both a cell death ELISA method, which measures DNA fragmentation, a hallmark of apoptosis; and Caspase-Glo® 3/7 assay which detects the activity of caspase 3/7, one of the execution enzymes for apoptosis in cells.
(§2) The Cell Death ELISA^Plus kit (Roche, Mannheim, Germany) was used according to the manufacturer's instructions. Cells were seeded in 96-well plates at 10,000 per well. After 24 h, cells were dosed and grown for an additional 48 h in RPMI 1640 with 10% FBS in 5% CO2 at 37° C. Cytoplasmic fractions of control and treated cells were transferred into streptavidin-coated 96-well plates and incubated with biotinylated mouse antihistone antibody and peroxidase-conjugated mouse anti-DNA antibody at room temperature for 2 h. Absorbance was determined at 405-490 nm using a Spectra Max Gemini microplate reader (Molecular Devices, Sunnyvale, Calif.).
(§3) The Caspase-Glo® 3/7 assay (Promega) is a homogeneous luminescent assay that measures caspase-3 and -7 activities. Cells were seeded in 96-well plates at 5,000 per well. […] Caspase 3/7 activity was detected by adding luminogenic caspase-3/7 substrate, which contains the tetrapeptide sequence DEVD, in a reagent optimized for caspase activity, luciferase activity and cell lysis, according to the manufacturer's instructions.
On the technique in general: ELISA stands for enzyme-linked immunosorbent assay.

For assay [2], the system named is BT474 cells. Nature of the assay: Cell apoptosis assays (Cell Death ELISA, Caspase-Glo 3/7), BT474. The following applies: BT474, presence of HGF (FIG. 4). The format is cell-based, human. As for the experimental part: as §1, §2, §3
Assay [3] relates to MKN-45 gastric carcinoma cells. Nature of the assay: Cell growth inhibition (CellTiter-Glo), MKN-45. The format is cell-based. The following applies: Homo sapiens, MKN-45, MKN-45 (HER3-over). An excerpt:
Esophageal carcinoma cell line OE33 was purchased from ECACC European Collection of Cell Cultures (UK). Breast cancer cell line JIMT-1 and gastric carcinoma cell line MKN-45 were purchased from Deutsche Sammlung von Mikroorganismen and Zellkulturen GmbH (Germany); KPL-4, a human breast cancer cell line was kindly provided by Prof. J Kurebayashi (Kawasaki Medical School, Kurashiki, Japan). […] The LICR-LON-HN5 head and neck carcinoma cell line (HN5) was a gift from the Institute of Cancer Research, Surrey, U.K. HN5C12 was developed by single-cell cloning of HN5 followed by exposure to increasing concentrations of lapatinib. […] Cell growth inhibition was determined via CellTiter-Glo cell viability assays. […] ATP levels were determined by adding Cell Titer Glo0 (Promega), incubating for 20 minutes then the luminescent signal was read on the SpectraMax M5 plate with a 0.5 second integration time. Cell growth was calculated relative to vehicle (DMSO) treated control wells. […] CI values were calculated with the interpolated IC50 values and the mutually non-exclusive equation derived by Chou and […](a)+Db/IC50(b)+(Da×Db)/(IC50(a)×IC50(b)) where IC50(a) is the IC50 of the inhibitor A; IC50(b) is the IC50 for the inhibitor B; […] […] EOHSA at each dose was calculated as the minimum difference in average % inhibition between the combination and each monotherapy, from the appropriate ANOVA contrast. […]
In general terms: Cellular ATP, detected with luciferase, serves as a proxy for viable cell number.

The IC50 is the concentration that inhibits the measured activity by half.

For the compound `CS(=O)(=O)CCNCc1ccc(-c2ccc3ncnc(Nc4ccc(OCc5cccc(F)c5)c(Cl)c4)c3c2)o1` [Lapatinib, N-(3-chloro-4-{[(3-fluorophenyl)methyl]oxy}phenyl)-6-[5-({[2-(methylsulfonyl)ethyl]amino}methyl)-2-furanyl]-4-quinazolinamine], the entries for the “apoptosis induction (DNA fragmentation and caspase 3/7 activation)” value in assay [1] and in assay [2] were “only in BT474” and “induces apoptosis”, respectively. The 50% inhibitory concentration (IC50) in assay [3] (+HRG (10 ng/mL)) was 5.06 µM; in assay [3] (−HRG), 6.16 µM.
